Laboratory results taken from patent US8003675B2 (priority 2006, dated 2011).

Key:
[1] = tested on: Stagonospora nodorum; experiment: Test for preventive effect on wheat glume blotch; type: in vivo; conditions: wheat (Nohrin No. 61), foliar spray 500 ppm, examined 12 days after inoculation
Experimental: Disease development degree=[(n0×0+n1×1+n2×2+n3×3+n4×4)/4×N]×100 [Expression 2]
n4: number of leaves of disease development degree 4 Protective value=[1−(disease development degree in treated plants)/(disease development degree in untreated plants)]×100 [Expression 3]
10 wheat seeds (variety: Nohrin No. 61) were sowed in a plastic cup of 5.5 cm in diameter and were grown in a greenhouse for 7 days. One of wettable powders prepared in accordance with Example 5 was diluted with water so that the concentration of active ingredient became 500 ppm, a spreader (brand name: KUMITEN) was added for the dilution factor to be 3,000 times, and a sufficient amount of the resulting solution was sprayed onto the leaves of wheat (1.5- to 2-leaf stage) using a spray gun. After air-drying, a suspension of the pycniospores of Stagonospora nodorum was sprayed for inoculation. Immediately thereafter, the wheat leaves were transferred into a moist chamber of 25° C. and allowed to stand under a bright condition for 48 hours for infection. Then, the wheat leaves were transferred into the greenhouse and, 12 days after the inoculation, the disease development index of each first leaf was examined according to the standard of Table 15. A disease development degree was calculated from the above expression 2. A protective value (%) was calculated from the above expression 3 and evaluated according to the standard of Table 16.

[2] = tested on: Colletotrichum orbiculare; experiment: Test for preventive effect for cucumber anthracnose; type: in vivo; conditions: cucumber (Sagamihanjiro), soil drench 10 ml at 1 ppm, inoculated 7 days later, lesions counted 7 days later
Experimental: Four cucumber seeds (variety: Sagamihanjiro) were sowed in a plastic cup of 5.5 cm in diameter, at a depth of 2 cm, and were grown in a greenhouse for 7 days. One of wettable powders prepared according to Example 5 was diluted with water so that the concentration of active ingredient became a given level. 10 ml of the dilution was poured into the soil at the root of young cucumber seedlings having cotyledons. 7 days later, a conidia suspension (10^5 to 10^6/ml) of Colletotrichum orbiculare which had been cultured in a PDA plate medium, was uniformly inoculated to the cucumber plant by hand spraying. The cup was allowed to stand, for infection, in a moist chamber of 25° C. for 24 hours. Then, the cup was allowed to stand on a basin in a glass greenhouse and, 7 day later, the number of lesions of all cotyledons in pot was examined. A protective value was calculated from the above expression 1 and evaluated according to the standard of Table 12.
Using the above-shown comparative compound, a wettable powder was prepared according to Example 5. A protective value thereof was calculated in the same manner as in the above Test Example.

[3] = tested on: Pyricularia oryzae; type: in vivo; conditions: paddy rice (Aichi Asahi), submerged application, 10 g a.i./10 a, inoculated 10 days after treatment, lesions counted 6 days after inoculation

SMILES	Evaluation [1]	Evaluation [2]	Protective value [2] [%]	Evaluation [3]	Protective value [3] [%]	melting point [°C]
Cc1cc(COC(=O)c2cc(C)ns2)sn1 [Comparative compound, reference compound]	D (protective value: less than 25%)	C (protective value: less than 80.0% to 50.0% or more)	73.3	D (protective value: less than 50.0%)	45.9	
CC(=O)OCc1snc(Cl)c1Cl [I-1]		B (protective value: less than 90.0% to 80.0% or more)	86.9	A (protective value: 100% to 90.0% or more)	96.1	
CC=CC=CC(=O)OCc1snc(Cl)c1Cl [I-24]		B (protective value: less than 90.0% to 80.0% or more)	89.1	A (protective value: 100% to 90.0% or more)	95.2	
CC(=S)OCc1snc(Cl)c1Cl [I-28, (3,4-dichloroisothiazol-5-yl)methyl thioacetate]				C (protective value: less than 80.0% to 50.0% or more)	79.9	
O=C(OCc1snc(Cl)c1Cl)c1ccccc1 [II-1, (3,4-dichloroisothiazol-5-yl)methyl benzoate]		B (protective value: less than 90.0% to 80.0% or more)	89.1	A (protective value: 100% to 90.0% or more)	92.3	79 to 80
Cc1ccccc1C(=O)OCc1snc(Cl)c1Cl [II-5]	A (protective value: 100% to 75% or more)			A (protective value: 100% to 90.0% or more)	94.6	
O=C(OCc1snc(Cl)c1Cl)c1ccccc1Cl [II-14]	B (protective value: less than 75% to 50% or more)			A (protective value: 100% to 90.0% or more)	92.4	
N#Cc1ccccc1C(=O)OCc1snc(Cl)c1Cl [II-17]				A (protective value: 100% to 90.0% or more)	98.2	
COC(=O)c1ccccc1C(=O)OCc1snc(Cl)c1Cl [II-24]	A (protective value: 100% to 75% or more)			A (protective value: 100% to 90.0% or more)	98.3	
O=C(OCc1snc(Cl)c1Cl)c1ccccc1[N+](=O)[O-] [II-55]	A (protective value: 100% to 75% or more)			A (protective value: 100% to 90.0% or more)	98.8	
COc1ccccc1C(=O)OCc1snc(Cl)c1Cl [II-57]	A (protective value: 100% to 75% or more)			A (protective value: 100% to 90.0% or more)	98.4	
CS(=O)(=O)c1ccccc1C(=O)OCc1snc(Cl)c1Cl [II-66]	A (protective value: 100% to 75% or more)			A (protective value: 100% to 90.0% or more)	97.8	
Cc1cccc(C)c1C(=O)OCc1snc(Cl)c1Cl [II-77]	A (protective value: 100% to 75% or more)			C (protective value: less than 80.0% to 50.0% or more)	74.1	
O=C(OCc1snc(Cl)c1Cl)c1c(Cl)cccc1Cl [II-78]	B (protective value: less than 75% to 50% or more)			C (protective value: less than 80.0% to 50.0% or more)	77.5	
COc1cccc(OC)c1C(=O)OCc1snc(Cl)c1Cl [II-79]	A (protective value: 100% to 75% or more)			A (protective value: 100% to 90.0% or more)	92.3	
Cc1cccc([N+](=O)[O-])c1C(=O)OCc1snc(Cl)c1Cl [II-82]	A (protective value: 100% to 75% or more)			B (protective value: less than 90.0% to 80.0% or more)	88.0	
